Results as given in patent publication US4980377A, “1-(aminophenyl)-2-aminopropanone derivatives” (Laboratoire L. Lafon, priority 1984, dated 1990).
Entries after “also recorded” stand apart in the source; their conditions may differ.

What was measured:
[1] = Particular toxicity in grouped mice; conditions: mouse, in vivo, ip
Experimental: The number of dead animals is noted after 1 hour, 2 hours, 3 hours, 4 hours and 24 hours.

[2] = tested on: nigrostriatal dopaminergic system; assay: Interaction with alpha-methyltyrosine on stereotypies (difference from amphetamine); conditions: α-methyltyrosine (catecholamine synthesis blocked)

For `CC(N)Cc1ccccc1` (centres unmarked) [amphetamine, reference compound], which selectivity ratio [1] is on record?
The selectivity ratio was roughly 8.

What about the “Effect of alpha-methyltyrosine on the stereotypies induced by the substance” value [2] of the same compound?
The value was “totally inhibits the stereotypies induced by amphetamine; also recorded: totally inhibited”.
